From PubChem BioAssay (NCI) come the findings set out here.

Holding throughout (assay): NCI anticancer screen, dose series, 48 h
Assay [1] concerns MCF7 breast.
Assay [2] concerns SK-MEL-28 melanoma.
Assay [3] concerns A549 NSCLC.
The subject of assay [4] is SK-OV-3 ovarian.
The subject of assay [5] is RPMI-8226 leukemia.
Assay [6] has as its system OVCAR-8 ovarian.
The subject of assay [7] is SN12C renal.
Assay [8] concerns SF-268 CNS.
Assay [9] has as its system DU-145 prostate.

Each structure is given as a SMILES string. Several values for one entry are separate records, joined by “and”; a condition that tells them apart may be missing. Identical values can stand only once.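 How tested: cells in 96-well plates exposed to compound for 48 hours at five concentrations. The concentration for 50% growth inhibition is given as GI50. TGI denotes the concentration required for complete inhibition of growth.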

With `Cc1cc2nc3c(C#N)c(-c4ccccc4)/c(=C\Nc4cccc(C(F)(F)F)c4)c(=O)n3c2cc1C`, the TGI in assay [1], in assay [2], in [3], in [4], in assay [5] and in [6] was above 100 µM in each case. Also, the TGI in assay [7] and in [8] was above 100 µM throughout.
For `Cn1c2ccccc2n2c(=O)c(-c3ccc(O)cc3)nnc12`, the TGI in assay [9], in assay [1], in [2], in [3], in [6] and in assay [7] was above 100 µM in each case. This molecule also returned a TGI in assay [8] above 100 µM.
Take `O=C(O)CCCN1CCCCC1`: the TGI in assay [9], in assay [2], in [3], in [5], in assay [6] and in assay [7] was above 100 µM in each case. The molecule also had a TGI in [8] above 100 µM.
`NC(=O)c1cc2ccccc2c(N=Nc2ccccc2)c1O`: the TGI in assay [9], in assay [2], in assay [3], in assay [4], in assay [5] and in [6] was above 100 µM throughout. Besides, the TGI in assay [7] and in [8] was above 100 µM throughout.
Consider `CCC1OC2C(CC=C(C)C)=C3OC(C)(O)C(C)(CC)C(O)C3=C3OC(=O)C=C1C32` (centres undefined), for which the TGI in assay [9], in assay [1], in [2], in assay [3], in [4] and in assay [5] was above 100 µM throughout. In assay [8], this molecule returned a TGI above 100 µM.
As for `CCc1nnc2sc(-c3ccc(-c4ccc(Cl)cc4Cl)o3)nn12`, the TGI in assay [9], in assay [2], in assay [3], in [4], in [5] and in assay [6] was above 100 µM throughout. In addition, the TGI in assay [7] and in assay [8] was above 100 µM in each case.
On to `CCOC(=O)c1c(OCC)[nH]c(=O)c(C(c2ccc(F)cc2)c2c(O)c(C(=O)OCC)c(OCC)[nH]c2=O)c1O`, for which the TGI in [9] worked out at 24.3 µM; in [1], 60.7 µM; in assay [2], 27 µM; in assay [3], 29.3 µM; in assay [5], 58.3 µM; in [6], 28.1 µM. The TGI in assay [7] is 30.2 µM; in [8] it was 33.6 µM.
For the molecule `O=C(CCN1CCCC1)Nc1ccc2c(NCCCCc3ccccc3)c3ccccc3nc2c1`, the GI50 in assay [9] is 1.15 µM; in assay [2] it was 1.8 µM; in assay [5], 0.258 µM; in [7] it was 1.08 µM. Also, the TGI in [9] stood at 2.39 µM; in assay [2], 3.24 µM; in assay [5], 0.837 µM; in assay [7], 2.39 µM.
On to `CC1(C)OC1CC/C(=C/CBr)CBr` (centres undefined), for which the TGI amounted to 55.6 µM in assay [9]; 28.5 µM in assay [1]; 31.5 µM in assay [2]; 53.1 µM in assay [3]; 48.5 µM in assay [4]; 40.7 µM in [5]. Besides, the values for the TGI in assay [7] and in [8] were 29.1 µM and 29 µM, respectively.
Turning to `Cc1ccc(S(=O)/C=C(\NC(=O)OCc2ccccc2)C(F)(F)F)cc1` (centres undefined), the TGI in assay [9] is above 100 µM; in [1], above 100 µM; in [2], 72 µM; in assay [3] it was above 100 µM; in assay [4], above 100 µM; in [6], above 100 µM. The molecule also gave a TGI in [7] above 100 µM.
On to `CC(=O)NC1C(OCC(=O)NC(C)C(=O)NC(CCC(=O)NCCCCCNc2ccc([N+](=O)[O-])c3[nH]c4ccccc4c(=O)c23)C(N)=O)C(O)C(CO)OC1(C)OCc1ccccc1` (centres undefined), for which the TGI in [9] is above 50 µM; in assay [1] it was above 50 µM; in [3], above 50 µM; in assay [4], above 50 µM; in assay [5], 36.6 µM; in assay [6], above 50 µM. Further, the TGI in [7] and in assay [8] was above 50 µM throughout.
On to `COCOc1cc(OC)ccc1C=O`, for which the TGI in assay [9], in [1], in [2], in assay [3], in assay [4] and in [6] was above 100 µM in each case. Further, the TGI in assay [7] and in [8] was above 100 µM in each case.
With `CC1(C)COC(c2cccc(C3=NC(C)(C)CO3)c2)=N1`, the TGI in assay [9], in [1], in assay [2], in [3], in assay [5] and in assay [6] was above 100 µM each time. The TGI in assay [8] was above 100 µM.
Regarding `CC(C)=NN/C(=N\S(=O)(=O)c1cc(Cl)c(Oc2ccc([N+](=O)[O-])cc2Cl)c(Cl)c1)Nc1ccc(Cl)cc1`, the TGI in [9], in assay [1], in assay [2], in assay [3], in assay [5] and in assay [6] was above 100 µM throughout. Further, the TGI in assay [7] and in [8] was above 100 µM each time.
In the case of `C#CCNC(Cc1ccccc1)C(=O)O` (centres undefined), the TGI in assay [9], in [2], in assay [3], in assay [4], in assay [5] and in assay [6] was above 100 µM each time. In assay [8], this molecule registered a TGI above 100 µM.
Turning to `N#CC(C(=O)c1ccccc1F)c1nc2cc(C(F)(F)F)ccc2s1` (centres undefined), the TGI in assay [9] is above 100 µM; in assay [2], above 100 µM; in [4] it was above 100 µM; in [5] it was 85 µM; in [6], above 100 µM; in [7], 67.2 µM. The TGI in assay [8] was above 100 µM.
On to `CC(=O)OCC1OC(n2c(-c3ccccc3)c(N=Nc3ccc(Cl)cc3)c(C)c(C#N)c2=S)C(OC(C)=O)C(OC(C)=O)C1OC(C)=O` (centres undefined), for which the GI50 in assay [9] was 25.3 µM and > 100 µM; in assay [1], 10.2 µM and 28.2 µM; in [2], 4.58 µM and 30.3 µM; in assay [3] it was 6.86 µM and 22.1 µM; in [4], 8.42 µM and 27.3 µM; in assay [5], 6.64 µM and 37.9 µM. In addition, the GI50 in assay [7] is 12.2 µM and > 100 µM; in assay [8], 14.7 µM and 39.3 µM. Also, the TGI was above 100 µM in assay [9]; 24.4 µM and > 100 µM in assay [1]; 16.9 µM and > 100 µM in [2]; above 100 µM in assay [3]; > 100 µM and 76.5 µM in assay [4]; above 100 µM in assay [5]. The TGI in assay [7] and in assay [8] was above 100 µM each time.
As for `COc1cc(-c2ccc(-c3ccc(C(=N)N)s3)s2)cc(OC)c1OC`, the GI50 in assay [9] was 2.32 µM; in assay [1], 1.66 µM; in [4], 5.15 µM; in [5], 2.46 µM; in [6] it was 2.62 µM; in assay [7] it was 1.61 µM. Further, the GI50 in assay [8] is 1.74 µM. For the same molecule, the TGI was found to be 5.83 µM in assay [9]; 4.32 µM in assay [1]; 18.8 µM in assay [4]; 5.72 µM in [5]; 5.31 µM in assay [6]; 3.17 µM in [7]. Also, the TGI in assay [8] is 3.49 µM.
Turning to `CCC(C#N)N(Cc1cccc(CN(C(C)=O)C(C#N)CC)c1)C(C)=O` (centres undefined), the TGI in assay [9], in assay [1], in [3], in assay [4], in [5] and in [6] was above 100 µM in each case. Besides, the TGI in assay [7] and in assay [8] was above 100 µM each time.
As for `CCOC(=O)Cc1csc(/N=C\c2c(O)c3ccccc3oc2=O)n1`, the TGI was above 100 µM in [1]; above 100 µM in assay [2]; above 100 µM in [3]; above 100 µM in assay [4]; 51.6 µM in assay [5]; above 100 µM in assay [6]. The TGI in assay [8] is above 100 µM.
Take `COc1ccc(N=NN2CCCC2)cc1`: the TGI in assay [9] was above 100 µM; in assay [1], 78 µM; in assay [2] it was above 100 µM; in [3], above 100 µM; in [4], above 100 µM; in assay [5] it was 74.1 µM. The TGI is 55 µM in [7] and above 100 µM in assay [8].
As to `Cc1cccc(Nc2cn(CCOc3ccccc3)c(=O)[nH]c2=O)c1`, the TGI is above 100 µM in assay [9]; above 100 µM in assay [1]; above 100 µM in assay [2]; 61.9 µM in [3]; above 100 µM in [5]; 81.7 µM in assay [7]. Moreover, the TGI in [8] is above 100 µM.
Regarding `CCCCN(CCCC)CC(=O)c1ccc2cc(Cl)c3ccccc3c2c1`, the TGI in assay [9] was above 100 µM; in [1], 92.3 µM; in assay [3], above 100 µM; in [4], above 100 µM; in assay [5] it was above 100 µM; in assay [6], 51.8 µM. The TGI in [7] was above 100 µM; in [8], 42.1 µM.
